Measurements as given in US6355799B1, “Substituted benzene compounds, process for their preparation, and herbicidal and defoliant compositions containing them” (ISK Americas Incorporated, priority 1997, dated 2002).

What was measured:
Type in all cases: in vivo
[1] = system: redroot pigweed (Amaranthus retroflexus, AMARE); assay: Pre-emerge test, greenhouse herbicide activity screening; conditions: pre-emerge, 14 days after application, rating scale 0-100
Method in brief: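 Compounds in acetone were track-sprayed at 15-1000 g ai/ha (187 l/ha) on sandy loam pots: pre-emerge one day after seeding, post-emerge at 2-3 leaf stage with 0.25% v/v non-ionic surfactant. Phytotoxicity was rated 14 days later on a 0 (no damage) to 100 (complete death) scale.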

[2] = system: field corn (Zea mays L., var. Dekalb 535, CORN); assay: Post-emerge test, crop safety; conditions: rating scale 0-100 (0 no damage, 100 complete death), 14 days after application
Method in brief: (§1)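 Rating: 0–100 visual injury, 14 DAA. Application: acetone, 187 l/ha, 15–1000 g ai/ha, flat-fan track sprayer with nozzle 40–45 cm above soil or canopy. Post-emerge runs used 0.25% v/v surfactant on 2–3 leaf plants.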

[3] = system: upland rice (Oryza sp., var. Tebonnet, RICE); assay: Post-emerge test, crop safety; conditions: rating scale 0-100 (0 no damage, 100 complete death), 14 days after application
Method in brief: as §1

[4] = system: johnsongrass (Sorghum halepense, SORHA); assay: Post-emerge test, greenhouse herbicide activity screening; conditions: rating scale 0-100 (0 no damage, 100 complete death), 14 days after application
Method in brief: as §1

[5] = system: redroot pigweed (Amaranthus retroflexus, AMARE); assay: as above; conditions: rating scale 0-100 (0 no damage, 100 complete death), 14 days after application
Method in brief: as §1

[6] = system: barnyardgrass (Echinochloa crus-galli, ECHCG); assay: as above; conditions: rating scale 0-100 (0 no damage, 100 complete death), 14 days after application
Method in brief: as §1

[7] = system: velvetleaf (Abutilon theophrasti, ABUTH); assay: as above; conditions: rating scale 0-100 (0 no damage, 100 complete death), 14 days after application
Method in brief: as §1

[8] = system: sicklepod (Cassia obtusifolia, CASOB); assay: as above; conditions: rating scale 0-100 (0 no damage, 100 complete death), 14 days after application
Method in brief: as §1

[9] = system: ivyleaf morningglory (Ipomoea hederacea, IPOHE); assay: as above; conditions: rating scale 0-100 (0 no damage, 100 complete death), 14 days after application
Method in brief: as §1

[10] = system: green foxtail (Setaria viridis, SETVI); assay: as above; conditions: rating scale 0-100 (0 no damage, 100 complete death), 14 days after application
Method in brief: as §1

[11] = system: large crabgrass (Digitaria sanguinalis, DIGSA); assay: as above; conditions: rating scale 0-100 (0 no damage, 100 complete death), 14 days after application
Method in brief: as §1

[12] = system: lambsquarters (Chenopodium album, CHEAL); assay: as above; conditions: rating scale 0-100 (0 no damage, 100 complete death), 14 days after application
Method in brief: as §1

[13] = system: johnsongrass (Sorghum halepense, SORHA); assay: Pre-emerge test, greenhouse herbicide activity screening; conditions: pre-emerge, 14 days after application, rating scale 0-100
Method in brief: (§2)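 Compounds in acetone were track-sprayed at 15–1000 g ai/ha: pre-emergence onto soil sown the previous day, then top-watered to incorporate and later bottom-watered; post-emergence onto 2–3 leaf plants with 0.25% v/v surfactant, bottom-watered only. Ratings on a 0–100 phytotoxicity scale were taken at day 14.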

[14] = system: barnyardgrass (Echinochloa crus-galli, ECHCG); assay: as above; conditions: pre-emerge, 14 days after application, rating scale 0-100
Method in brief: as §2

[15] = system: velvetleaf (Abutilon theophrasti, ABUTH); assay: as above; conditions: pre-emerge, 14 days after application, rating scale 0-100
Method in brief: as §2

[16] = system: sicklepod (Cassia obtusifolia, CASOB); assay: as above; conditions: pre-emerge, 14 days after application, rating scale 0-100
Method in brief: as §2

[17] = system: ivyleaf morningglory (Ipomoea hederacea, IPOHE); assay: as above; conditions: pre-emerge, 14 days after application, rating scale 0-100
Method in brief: as §2

[18] = system: green foxtail (Setaria viridis, SETVI); assay: as above; conditions: pre-emerge, 14 days after application, rating scale 0-100
Method in brief: as §2

[19] = system: large crabgrass (Digitaria sanguinalis, DIGSA); assay: as above; conditions: pre-emerge, 14 days after application, rating scale 0-100
Method in brief: as §2

[20] = system: lambsquarters (Chenopodium album, CHEAL); assay: as above; conditions: pre-emerge, 14 days after application, rating scale 0-100
Method in brief: as §2

[21] = system: field corn (Zea mays L., var. Dekalb 535, CORN); assay: Pre-emerge test, crop safety; conditions: pre-emerge, 14 days after application, rating scale 0-100
Method in brief: (§3)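 Fourteen days after spraying, crop and weed injury was graded visually from 0, no effect, to 100, every plant dead. Test substances were dissolved in acetone and applied at 15–1000 g ai/ha with a flat-fan nozzle. Application was either pre-emergence, one day after sowing, or post-emergence at the 2–3 leaf stage.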

[22] = system: upland rice (Oryza sp., var. Tebonnet, RICE); assay: Pre-emerge test, crop safety; conditions: pre-emerge, 14 days after application, rating scale 0-100
Method in brief: as §3

CCOC(=O)C(Cl)(CC(=O)OC)Cc1c(OC)c(Cl)cc(F)c1-n1c(=O)cc(C(F)(F)F)n(C)c1=O (centres unmarked) [14-50]
phytotoxicity rating AMARE ([1]; 63 g ai/ha): 100 | phytotoxicity rating AMARE ([1]; 250 g ai/ha): 100 | Post-emerge phytotoxicity rating CORN (crop damage) ([2]; Rate 63 g ai/ha): 10 | Post-emerge phytotoxicity rating CORN (crop damage) ([2]; Rate 250 g ai/ha): 30 | Post-emerge phytotoxicity rating RICE (crop damage) ([3]; Rate 63 g ai/ha): 30 | Post-emerge phytotoxicity rating RICE (crop damage) ([3]; Rate 250 g ai/ha): 50 | Post-emerge Herbicidal Activity, phytotoxicity rating SORHA ([4]; Rate 63 g ai/ha): 0 | Post-emerge Herbicidal Activity, phytotoxicity rating SORHA ([4]; Rate 250 g ai/ha): 0 | Post-emerge Herbicidal Activity, phytotoxicity rating AMARE ([5]; Rate 63 g ai/ha): 100 | Post-emerge Herbicidal Activity, phytotoxicity rating AMARE ([5]; Rate 250 g ai/ha): 100 | Post-emerge Herbicidal Activity, phytotoxicity rating ECHCG ([6]; Rate 63 g ai/ha): 0 | Post-emerge Herbicidal Activity, phytotoxicity rating ECHCG ([6]; Rate 250 g ai/ha): 0 | Post-emerge Herbicidal Activity, phytotoxicity rating ABUTH ([7]; Rate 63 g ai/ha): 30 | Post-emerge Herbicidal Activity, phytotoxicity rating ABUTH ([7]; Rate 250 g ai/ha): 50 | Post-emerge Herbicidal Activity, phytotoxicity rating CASOB ([8]; Rate 63 g ai/ha): 90 | Post-emerge Herbicidal Activity, phytotoxicity rating CASOB ([8]; Rate 250 g ai/ha): 100 | Post-emerge Herbicidal Activity, phytotoxicity rating IPOHE ([9]; Rate 63 g ai/ha): 0 | Post-emerge Herbicidal Activity, phytotoxicity rating IPOHE ([9]; Rate 250 g ai/ha): 0 | Post-emerge Herbicidal Activity, phytotoxicity rating SETVI ([10]; Rate 63 g ai/ha): 0 | Post-emerge Herbicidal Activity, phytotoxicity rating SETVI ([10]; Rate 250 g ai/ha): 0 | Post-emerge Herbicidal Activity, phytotoxicity rating DIGSA ([11]; Rate 63 g ai/ha): 0 | Post-emerge Herbicidal Activity, phytotoxicity rating DIGSA ([11]; Rate 250 g ai/ha): 50 | Post-emerge Herbicidal Activity, phytotoxicity rating CHEAL ([12]; Rate 63 g ai/ha): 50 | Post-emerge Herbicidal Activity, phytotoxicity rating CHEAL ([12]; Rate 250 g ai/ha): 100 | phytotoxicity rating SORHA ([13]; 63 g ai/ha): 50 | phytotoxicity rating SORHA ([13]; 250 g ai/ha): 95 | phytotoxicity rating ECHCG ([14]; 63 g ai/ha): 0 | phytotoxicity rating ECHCG ([14]; 250 g ai/ha): 30 | phytotoxicity rating ABUTH ([15]; 63 g ai/ha): 0 | phytotoxicity rating ABUTH ([15]; 250 g ai/ha): 50 | phytotoxicity rating CASOB ([16]; 63 g ai/ha): 0 | phytotoxicity rating CASOB ([16]; 250 g ai/ha): 30 | phytotoxicity rating IPOHE ([17]; 63 g ai/ha): 10 | phytotoxicity rating IPOHE ([17]; 250 g ai/ha): 70 | phytotoxicity rating SETVI ([18]; 63 g ai/ha): 0 | phytotoxicity rating SETVI ([18]; 250 g ai/ha): 50 | phytotoxicity rating DIGSA ([19]; 63 g ai/ha): 0 | phytotoxicity rating DIGSA ([19]; 250 g ai/ha): 40 | phytotoxicity rating CHEAL ([20]; 63 g ai/ha): 100 | phytotoxicity rating CHEAL ([20]; 250 g ai/ha): 100 | phytotoxicity rating CORN ([21]; 63 g ai/ha): 10 | phytotoxicity rating CORN ([21]; 250 g ai/ha): 90 | phytotoxicity rating RICE ([22]; 63 g ai/ha): 0 | phytotoxicity rating RICE ([22]; 250 g ai/ha): 0
